Patent publication US8933018B2, “Boron containing polybasic bacterial efflux pump inhibitors and therapeutic uses thereof” (priority 2011, dated 2015)
Where two headings read alike, the source gives them in different places.

Tests used:
[1] = test system: P. aeruginosa, PAM1723, overexpressing the MexAB-OprM efflux pump; type: cell-based, Pseudomonas aeruginosa; conditions: lowest EPI concentration giving antibacterial activity with levofloxacin at 1/8 of its MIC, MHB, 20 h at 35° C.
Outline: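 Checkerboard microdilution in Mueller Hinton Broth, with EPI concentrations varied along one axis. The inoculum was 5 times 10^5 CFU/ml from early-log culture. Plates were incubated 20 h at 35° C, and growth was read at 650 nm and by visual inspection.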

[2] = test system: P. aeruginosa PAM3062, which overexpresses the MexAB-OprM efflux pump; type: in vivo, Pseudomonas aeruginosa; conditions: neutropenic rats, lung, 1.5 hr IV infusion, 24 hours after start of treatment
Method: Rats are made neutropenic by administration of a 75 mg/kg dose of cyclophosphamide 2 days prior to infection. Immediately prior to infection, rats are anesthetized with isoflurane. Lung infection is established by intratracheal instillation of ˜1×10^7 CFU/lung. P. aeruginosa PAM3062, which overexpresses the MexAB-OprM efflux pump, is used for infection. All treatments are initiated 4 hours after infection and are administered by 1.5 hr IV infusion twice daily. Rats are sacrificed 24 hours after the start of treatment; lungs are homogenized, serially diluted, and plated to determine colony counts.

Row | SMILES | MPC8 (Minimum Potentiating Concentration) [1] | other results
1 | NCCN(CCN)C(=O)CC[C@H](N)C(=O)N[C@H](Cc1ccc(C(F)(F)F)cc1)C(=O)Nc1cccc(B(O)O)c1 [Compound 2] | B (B = MPC8 of 2.5 μg/ml to less than 10 μg/mL.) | Δlog CFU ([2]; levofloxacin 100 (50 BID) mg/kg + EPI 40 (20 BID) mg/kg 24 hr dose): −1.74
2 | NCCN(CCN)C(=O)CC[C@H](N)C(=O)N[C@H](CCc1ccc(C(F)(F)F)cc1)C(=O)Nc1ccc2c(c1)B(O)OC2 [Compound 6, (S)-2-amino-N5,N5-bis(2-aminoethyl)-N1-((R)-1-(1-hydroxy-1,3-dihydrobenzo[c][1,2]oxaborol-6-ylamino)-1-oxo-4-(4-(trifluoromethyl)phenyl)butan-2-yl)pentanediamide] | B (B = MPC8 of 2.5 μg/ml to less than 10 μg/mL.) | Δlog CFU ([2]; levofloxacin 100 (50 BID) mg/kg + EPI 16 (8 BID) mg/kg 24 hr dose): −2.99
3 | NCCN(CCN)C(=O)CC[C@H](N)C(=O)N[C@H](CCc1ccc(C(F)(F)F)cc1)C(=O)Nc1cccc(B(O)O)c1 [Compound 14, 3-((R)-2-((S)-2-amino-5-(bis(2-aminoethyl)amino)-5-oxopentanamido)-4-(4-(trifluoromethyl)phenyl)butanamido)phenylboronic acid] | B (B = MPC8 of 2.5 μg/ml to less than 10 μg/mL.) | Δlog CFU ([2]; levofloxacin 100 (50 BID) mg/kg + EPI 20 (10 BID) mg/kg 24 hr dose): −1.13
4 | CC1(C)OB(O)c2cc(NC(=O)[C@@H](Cc3ccc(C(F)(F)F)cc3)NC(=O)[C@@H](N)CCC(=O)N(CCN)CCN)ccc21 [Compound 20, (S)-2-Amino-N5,N5-bis(2-aminoethyl)-N1-((R)-1-(1-hydroxy-3,3-dimethyl-1,3-dihydrobenzo[c][1,2]oxaborol-6-ylamino)-1-oxo-3-(4-(trifluoromethyl)phenyl)propan-2-yl)pentanediamide] | A (A = MPC8 of less than 2.5 μg/mL.) | Δlog CFU ([2]; levofloxacin 100 (50 BID) mg/kg + EPI 10 (5 BID) mg/kg 24 hr dose): −1.75
5 | CC1(C)OB(O)c2c1ccc(F)c2NC(=O)[C@@H](CCc1ccc(C(F)(F)F)cc1)NC(=O)[C@@H](N)CCC(=O)N(CCN)CCN [Compound 103, (S)-2-amino-N^5,N^5-bis(2-aminoethyl)-N^1-((R)-1-(6-fluoro-1-hydroxy-3,3-dimethyl-1,3-dihydrobenzo[c][1,2]oxaborol-7-ylamino)-1-oxo-4-(4-(trifluoromethyl)phenyl)butan-2-yl)pentanediamide] | B (B = MPC8 of 2.5 μg/ml to less than 10 μg/mL.) | 
6 | CC1(C)OB(O)c2cc(NC(=O)[C@@H](Cc3ccc(C(F)(F)F)cc3)NC(=O)[C@@H](N)CCCNC(=O)C(CN)CN)ccc21 [Compound 104, (S)-2-amino-5-(3-amino-2-(aminomethyl)propanamido)-N-((R)-1-(1-hydroxy-3,3-dimethyl-1,3-dihydrobenzo[c][1,2]oxaborol-6-ylamino)-1-oxo-3-(4-(trifluoromethyl)phenyl)propan-2-yl)pentanamide] | B (B = MPC8 of 2.5 μg/ml to less than 10 μg/mL.) | 
7 | CC1(C)OB(O)c2cc(C(=O)NC[C@@H](CCc3ccc(C(F)(F)F)cc3)NC(=O)[C@@H](N)CCC(=O)N(CCN)CCN)ccc21 [Compound 106, (S)-2-amino-N^5,N^5-bis(2-aminoethyl)-N^1-((R)-1-(1-hydroxy-3,3-dimethyl-1,3-dihydrobenzo[c][1,2]oxaborole-6-carboxamido)-4-(4-(trifluoromethyl)phenyl)butan-2-yl)pentanediamide] | B (B = MPC8 of 2.5 μg/ml to less than 10 μg/mL.) | 
8 | CC1(C)OB(O)c2cc(NC[C@@H](CCc3ccc(C(F)(F)F)cc3)NC(=O)[C@@H](N)CCC(=O)N(CCN)CCN)ccc21 [Compound 107, (S)-2-amino-N^5,N^5-bis(2-aminoethyl)-N^1-((R)-1-(1-hydroxy-3,3-dimethyl-1,3-dihydrobenzo[c][1,2]oxaborol-6-ylamino)-4-(4-(trifluoromethyl)phenyl)butan-2-yl)pentanediamide] | A (A = MPC8 of less than 2.5 μg/mL.) | 
9 | CC1(C)OB(O)c2cc(NC[C@@H](Cc3ccc(C(F)(F)F)cc3)NC(=O)[C@@H](N)CCC(=O)N(CCN)CCN)ccc21 [Compound 108, (S)-2-amino-N^5,N^5-bis(2-aminoethyl)-N^1-((R)-1-(1-hydroxy-3,3-dimethyl-1,3-dihydrobenzo[c][1,2]oxaborol-6-ylamino)-3-(4-(trifluoromethyl)phenyl)propan-2-yl)pentanediamide] | A (A = MPC8 of less than 2.5 μg/mL.) | 
